Drawing on ChEMBL document CHEMBL3507680, “University of Dundee, Gates Library screen for HepG2 cell viability”, this text covers cytotoxicity for 103 compounds.

Each structure is given as a SMILES string.

The data set in a line: Human HepG2 cell viability assay in 384 well format. The data set is classed as toxicity, cell-based. The following applies: HepG2 cells, read-out: Inhibition. The arrangement: dose 125 nL, time 70.5 hour; cytotoxicity at 70.5 h: concentration not given beside the values.
As to `Cc1cccc(NC(=O)CNC(=O)Cn2ncc(Cl)c(Cl)c2=O)c1C`, the cytotoxicity at 70.5 h was 4.71%.

Take `Cc1cc(C)n(CC2CCCN2C(=O)c2ccc3[nH]c(=O)[nH]c3c2)n1` (stereo not drawn): the cytotoxicity at 70.5 h is -17.4%.

In the case of `Cc1cc(C)n(CC2CCCN2C(=O)c2ccc3[nH]cnc3c2)n1` (stereo not drawn), the cytotoxicity at 70.5 h was -9%.

Turning to `CSCC(CCO)NC(=O)Nc1ccc(C)cc1C` (stereo not drawn), the cytotoxicity at 70.5 h is -14.5%.

With `CSCC(CCO)NC(=O)Nc1ccc(C)cc1Br` (stereo not drawn), the cytotoxicity at 70.5 h turned out to be 0.54%.

Take `Cc1cn(-c2ccccc2)nc1NS(=O)(=O)c1cc(C(=O)O)sc1C`: the cytotoxicity at 70.5 h was -18.9%.

As to `Cc1cn(-c2ccccc2)nc1NS(=O)(=O)c1cc(C(=O)O)ccc1Cl`, the cytotoxicity at 70.5 h is -9.13%.

Take `O=C(CCc1ccncc1)N1CCCC(N2CCNC2=O)C1` (stereo not drawn): the cytotoxicity at 70.5 h was -19.2%.

For `Cc1cc(CNCc2c(C(C)C)nn(C)c2N2CCOCC2)no1`, the cytotoxicity at 70.5 h was -6.34%.

For `Cc1ccc(CNCc2c(C(C)C)nn(C)c2N2CCOCC2)s1`, the cytotoxicity at 70.5 h was -19.6%.

Consider `Cc1nc(C)n(CC2CCCN2CC(=O)NCCC#N)n1` (stereo not drawn), for which the cytotoxicity at 70.5 h is -19.9%.

`CCOCCC1(C(=O)N2CCCC(c3ncc[nH]3)C2)CCCC1` (stereo not drawn): the cytotoxicity at 70.5 h was -16.4%.

Consider `Cc1nc(C)n(CC2CCCN2CC(=O)NCCc2ccsc2)n1` (stereo not drawn), for which the cytotoxicity at 70.5 h was 3.16%.

With `Cc1nc(C)n(CC2CCCN2CC(=O)NCCC2=CCCCC2)n1` (stereo not drawn), the cytotoxicity at 70.5 h was -9.96%.

On to `Cc1cc(C)n(CC2CCCN2C(=O)c2ccc3c(c2)COC3)n1` (stereo not drawn), for which the cytotoxicity at 70.5 h was -13.3%.

With `Cc1nc(C)n(CC2CN(CCc3ccccc3Cl)CCO2)n1` (stereo not drawn), the cytotoxicity at 70.5 h stood at 39.5%.

Turning to `CC(C)n1cc(CN2CCCN(C(=O)c3ccoc3)CC2)cn1`, the cytotoxicity at 70.5 h was found to be 27.6%.

For the compound `Cc1ccc(OCCCC(=O)NC(C)c2ccc(S(N)(=O)=O)cc2)cc1` (stereo not drawn), the cytotoxicity at 70.5 h came to 34.1%.

`Cc1ccc(NC(C)C(=O)NCc2cccs2)cc1Cl` (stereo not drawn): the cytotoxicity at 70.5 h is 5.9%.

Consider `Cc1ccc(S(N)(=O)=O)cc1C(=O)NCC1Cc2ccccc2O1` (stereo not drawn), for which the cytotoxicity at 70.5 h was -3.82%.

In the case of `CS(=O)(=O)Cc1ccc(C(=O)NCC2Cc3ccccc3O2)cc1` (stereo not drawn), the cytotoxicity at 70.5 h was -0.3%.

Consider `Cc1nccn1-c1cc(CNC(=O)N2CCSCC2)ccn1`, for which the cytotoxicity at 70.5 h is -3.48%.

Turning to `Cc1nccn1-c1cc(CNC(=O)CCNC(=O)OC(C)(C)C)ccn1`, the cytotoxicity at 70.5 h is -7.58%.

For the compound `CS(=O)(=O)c1cccc(C(=O)NCC2Cc3ccccc3O2)c1` (stereo not drawn), the cytotoxicity at 70.5 h was -5.79%.

For `Cc1cc(C)c(S(N)(=O)=O)cc1C(=O)NCC1Cc2ccccc2O1` (stereo not drawn), the cytotoxicity at 70.5 h was -5.64%.

`CC(Oc1ccccc1C(F)(F)F)C(=O)NCC(=O)N1CCCC1` (stereo not drawn): the cytotoxicity at 70.5 h is -6.07%.

`COC(=O)CNC(=O)C(C)Oc1ccccc1C(F)(F)F` (stereo not drawn): the cytotoxicity at 70.5 h is -3.31%.

Regarding `Cc1cc(C(=O)N2CCCN(Cc3cnn(C(C)C)c3)CC2)no1`, the cytotoxicity at 70.5 h was -3%.

Regarding `COc1ccsc1C(=O)N1CCCC1c1c(C)nn(C)c1OC` (stereo not drawn), the cytotoxicity at 70.5 h is -4.7%.

For `O=C1CC(Cc2ccc(NC(=O)c3cccc(F)c3)cc2)C(=O)N1` (stereo not drawn), the cytotoxicity at 70.5 h was -3.69%.

As to `CC1CN(C)c2ccccc2CN1C(=O)c1ccoc1` (stereo not drawn), the cytotoxicity at 70.5 h came out at 10%.

For the compound `Cc1ccoc1C(=O)NCCOc1ncc(Cl)cc1Cl`, the cytotoxicity at 70.5 h was -4.36%.

In the case of `CC1CN(C)c2ccccc2CN1C(=O)c1cc[nH]c(=O)c1` (stereo not drawn), the cytotoxicity at 70.5 h is -0.482%.

Turning to `Cc1cc(C)n(CC2CN(CCc3ccncc3)CCO2)n1` (stereo not drawn), the cytotoxicity at 70.5 h is -2.71%.

Regarding `CC(C)n1cc(CN2CCCN(C(=O)c3ccnn3C)CC2)cn1`, the cytotoxicity at 70.5 h was -2.89%.

For the compound `COCCOCCNC(=O)C(C)Oc1ccccc1C(F)(F)F` (stereo not drawn), the cytotoxicity at 70.5 h is -5.94%.

Regarding `COC(=O)C(O)C1CCN(Cc2cccc(-n3cccn3)c2)CC1` (stereo not drawn), the cytotoxicity at 70.5 h is -1.06%.

`O=C(c1cncc(Br)c1)N1CCCc2ccc(F)cc21`: the cytotoxicity at 70.5 h was -5.54%.

Turning to `Cc1cccc(N(CCC(N)=O)CC(=O)Nc2ccccc2)c1`, the cytotoxicity at 70.5 h was found to be 0.933%.

For `COCc1cccc(NC(=O)NCc2ncc(C)c(OC)c2C)c1`, the cytotoxicity at 70.5 h worked out at 0.253%.

Consider `Cc1cc(NC(=O)CSc2nc(=O)ccn2C(C)C)no1`, for which the cytotoxicity at 70.5 h was -0.711%.

For `O=C1C(NCc2ccccc2O)CCN1Cc1ccccc1` (stereo not drawn), the cytotoxicity at 70.5 h worked out at 18.3%.

Take `O=C(c1cc[nH]n1)N(Cc1ccc(F)cc1)CC1CC1`: the cytotoxicity at 70.5 h stood at 0.0679%.

Consider `COCCNc1ccc(CNC(=O)C2COc3ccccc32)cc1` (stereo not drawn), for which the cytotoxicity at 70.5 h was 19.2%.

Turning to `Cc1nccc(CNC(=O)NCC(C)Oc2ccccc2F)n1` (stereo not drawn), the cytotoxicity at 70.5 h came out at 10.9%.

As for `CNC(=O)c1ccc(Cn2ccnc2S(C)(=O)=O)cc1`, the cytotoxicity at 70.5 h is -0.546%.

With `CCn1ccnc1S(=O)(=O)Cc1ccc(C(N)=O)cc1`, the cytotoxicity at 70.5 h is -2.48%.

Consider `CS(=O)(=O)c1nccn1Cc1ccc(Cl)cc1`, for which the cytotoxicity at 70.5 h was -5.04%.

On to `CCS(=O)(=O)CC(=O)Nc1cccc2c1CN(CC(C)C)C2`, for which the cytotoxicity at 70.5 h was -0.0392%.

Regarding `CN(C(=O)CCNC(=O)C1COc2ccccc21)c1ccccc1` (stereo not drawn), the cytotoxicity at 70.5 h was -6.34%.

Regarding `Cc1cc(C)n(CC(=O)NC2CCCCNC2=O)n1` (stereo not drawn), the cytotoxicity at 70.5 h is -6.78%.

Regarding `Cc1ccc(S(=O)(=O)NC(=O)CCOCC(C)C)s1`, the cytotoxicity at 70.5 h is 8.21%.

On to `CCC(Nc1nnnn1-c1ccccc1)C(=O)Nc1nc(C)cs1` (stereo not drawn), for which the cytotoxicity at 70.5 h was -12.4%.

For `CCC(Nc1nnnn1-c1ccccc1)C(=O)NCc1ccsc1` (stereo not drawn), the cytotoxicity at 70.5 h is -12.5%.

For the compound `CC(=O)N1CCN(C(=O)CNc2cccc(OC(F)F)c2C)CC1`, the cytotoxicity at 70.5 h is -1.78%.

`Cc1noc(C)c1CN(C)C(=O)COc1cccc(C#N)c1`: the cytotoxicity at 70.5 h is -10.8%.

On to `CCC1CN(C(=O)c2csc(-c3cnn(C)c3)n2)CCO1` (stereo not drawn), for which the cytotoxicity at 70.5 h is -10.2%.

For the compound `COCCCN(C)S(=O)(=O)c1ccc(C(F)(F)F)cc1C#N`, the cytotoxicity at 70.5 h was -10.6%.

For `CCN(CC)S(=O)(=O)c1ccc(C(F)(F)F)cc1C#N`, the cytotoxicity at 70.5 h is -8.21%.

Turning to `CN(CC1CC1)S(=O)(=O)c1ccc(C(F)(F)F)cc1C#N`, the cytotoxicity at 70.5 h was -11.7%.

For `CCC(C)(C)NC(=O)CSCc1ccc(S(=O)(=O)N(C)C)o1`, the cytotoxicity at 70.5 h is -9.79%.

As for `COc1ccsc1C(=O)Nc1cc(Br)c(=O)n(C)c1`, the cytotoxicity at 70.5 h was -4.19%.

As for `Cc1csc(C(C#N)C(=O)NCc2ccccc2)n1` (stereo not drawn), the cytotoxicity at 70.5 h was -6.71%.

For the compound `COc1cccc(NC(=O)NCC(Cc2cnn(C)c2)C(N)=O)c1` (stereo not drawn), the cytotoxicity at 70.5 h is -7.2%.

For `Cn1cc(CC(CNC(=O)Nc2cccc(Cl)c2)C(N)=O)cn1` (stereo not drawn), the cytotoxicity at 70.5 h is -6.01%.

`CC(C)C(c1cccnc1)N(C)C(=O)Cc1c(F)cccc1F` (stereo not drawn): the cytotoxicity at 70.5 h was -6.11%.

As to `O=C(Cc1ccc(S(=O)(=O)C(F)F)cc1)N1CCCC1`, the cytotoxicity at 70.5 h is -5.59%.

As for `CC1CCN(C(=O)Cc2ccc(S(=O)(=O)C(F)F)cc2)CC1`, the cytotoxicity at 70.5 h was -11%.

In the case of `COCCOC1CCN(C(=O)NCc2cc(C)oc2C)CC1`, the cytotoxicity at 70.5 h was -8.46%.

With `CC(C)c1nnc2n1CCN(C(C)c1nnc(-c3cccs3)o1)C2` (stereo not drawn), the cytotoxicity at 70.5 h was -3.01%.

For the compound `CC(C)N(C)C(=O)CSCc1ccc(S(=O)(=O)N(C)C)o1`, the cytotoxicity at 70.5 h is -10.8%.

With `Cc1ccc2c(c1)OCCCC2NCc1nccn1Cc1ccccc1` (stereo not drawn), the cytotoxicity at 70.5 h is -6.01%.

On to `CCN1CCN(C(=O)C(C)SC)CC1` (stereo not drawn), for which the cytotoxicity at 70.5 h was -6.96%.

On to `Cc1cccc2c1OCCCC2NCc1nccn1Cc1ccccc1` (stereo not drawn), for which the cytotoxicity at 70.5 h is -5.77%.

Consider `Cc1ccc2c(c1)OCCCC2NCc1nccn1CC(C)C` (stereo not drawn), for which the cytotoxicity at 70.5 h is -7.28%.

As for `Cc1nc(CNC(C(=O)N2CCOCC2)C(C)C)no1` (stereo not drawn), the cytotoxicity at 70.5 h is -6.16%.

Regarding `COCCN(CCOC)c1ncccc1Cl`, the cytotoxicity at 70.5 h was -6.57%.

As to `Cc1nc(CN(C)C2CCN(Cc3cccc4cccnc34)C2)no1` (stereo not drawn), the cytotoxicity at 70.5 h is 34%.

For `CCc1nnnn1Cc1csc(N(C)C(C)=O)n1`, the cytotoxicity at 70.5 h is 11.5%.

Regarding `O=C(NCC1(Sc2ccccc2)CC1)c1c[nH]nn1`, the cytotoxicity at 70.5 h was -0.96%.

Consider `O=C(NCC1(Sc2ccccc2)CC1)c1cc[nH]n1`, for which the cytotoxicity at 70.5 h is -1.79%.

Consider `CS(=O)(=O)c1ccc(C(=O)NCc2nc3cc(F)ccc3[nH]2)cc1`, for which the cytotoxicity at 70.5 h stood at 0.751%.

Consider `Cc1noc(C)c1CC(=O)N1CCCN(C)c2ccc(Cl)cc21`, for which the cytotoxicity at 70.5 h is -11.4%.

With `Cc1cc(S(=O)(=O)NCC[S+](C)[O-])c(F)cc1F` (stereo not drawn), the cytotoxicity at 70.5 h is -2.05%.

Take `CC(O)(CNC(=O)c1cccnc1-n1cccn1)c1ccco1` (stereo not drawn): the cytotoxicity at 70.5 h is -4.51%.

In the case of `NC(=O)CN1CCC(OCc2ccc(Cl)c(Cl)c2)CC1`, the cytotoxicity at 70.5 h was -1.02%.

Consider `CCc1cnccc1C(=O)NC1CCN(C(=O)OC)CC1`, for which the cytotoxicity at 70.5 h worked out at 24.5%.

On to `CC(O)(CNC(=O)c1cccnc1-n1cccn1)c1cccs1` (stereo not drawn), for which the cytotoxicity at 70.5 h is -9.1%.

Consider `CC(C)(C)SCC(=O)NC(C)(C(N)=O)c1cccc(Cl)c1` (stereo not drawn), for which the cytotoxicity at 70.5 h was -6.38%.

Regarding `CC(C)(C)CC(=O)NC(C)(C(N)=O)c1cccc(Cl)c1` (stereo not drawn), the cytotoxicity at 70.5 h was 17.3%.

Regarding `Cc1nnc(CN(C)CC2CCCCC2)o1`, the cytotoxicity at 70.5 h was -11.8%.

With `Cc1cc(S(=O)(=O)NCC(C)(O)CN(C)C)c(F)cc1F` (stereo not drawn), the cytotoxicity at 70.5 h was -9.95%.

Take `CC1COCCN1Cc1noc(C(C)(C)C)n1` (stereo not drawn): the cytotoxicity at 70.5 h was 19.8%.

With `Cc1cnn(CC2CCCN2Cc2cc(=O)n3ccccc3n2)c1` (stereo not drawn), the cytotoxicity at 70.5 h was -5.58%.

Regarding `Cc1cc(CN2CCCC(C)(CO)C2)ccc1F` (stereo not drawn), the cytotoxicity at 70.5 h is -6.61%.

On to `Cc1ccc(C(CNCC2CC2)N2CCOCC2)s1` (stereo not drawn), for which the cytotoxicity at 70.5 h stood at 11.7%.

In the case of `CS(=O)(=O)NCCCNC(=O)c1cccnc1O`, the cytotoxicity at 70.5 h was -4.43%.

For `O=C(Nc1ccc(N2CCCC2)nc1)N1CCc2sccc2C1`, the cytotoxicity at 70.5 h worked out at 15.9%.

On to `Cc1cc(NC(=O)c2nc(N3CCCC3)ncc2Cl)nc(C(C)C)n1`, for which the cytotoxicity at 70.5 h was found to be 2.57%.

Consider `O=C1C(NCc2ccc3c(c2)CCO3)CCN1Cc1ccccc1` (stereo not drawn), for which the cytotoxicity at 70.5 h is -14.7%.

With `Cc1ccc(S(=O)(=O)NCC(C)(C)N)c(F)c1`, the cytotoxicity at 70.5 h was -6.25%.

For `Cc1cc(S(=O)(=O)NCC(C)(C)N)c(F)cc1F`, the cytotoxicity at 70.5 h was -0.878%.

For `NCC1(c2cccc(Br)c2)CCOCC1`, the cytotoxicity at 70.5 h is -5.45%.
